# Experimental data from article PMC9505425, “Targeting of the Mitochondrial TET1 Protein by Pyrrolo[3,2-b]pyrrole Chelators” (International Journal of Molecular Sciences, 2022).
# Several values for one entry are separate records, joined by “and”; a condition that tells them apart may be missing. Equal entries are not always repeated.
# How the values were obtained:
# HF-P4 cells = assay: MTT cytotoxicity assay, HF-P4; type: cell-based, human; conditions: 48 h; for Cell viability %: repeats
# Method in brief: (§1)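 Cells seeded at 1.0 × 10^5 per well, grown 24 h, then exposed 48 h to compounds at 0.1–20 μM (DMSO ≤1%). MTT added for 2 h, formazan dissolved in DMSO, absorbance read at 570 nm. IC50 calculated relative to untreated cells (100%).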
# [1] = MTT cytotoxicity assay, HF-P4; type: cell-based, human; conditions: human, HF-P4 normal human dermal fibroblasts, repeats, read-out: Cell viability %
# Method in brief: as §1
# Caov-3 cells = assay: MTT cytotoxicity assay, Caov-3; type: cell-based, human
# Method in brief: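 Caov-3 ovarian adenocarcinoma cells, grown for 24 h after plating, were exposed for 48 h to compound at 0.1–20 μM with at most 1% DMSO. Viability was measured by MTT reduction (2 h, A570) relative to untreated cells. IC50 was the concentration inhibiting 50% of cell growth.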
# BT-20 cells = assay: MTT cytotoxicity assay, BT-20; type: cell-based, human
# Method in brief: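 BT-20 human breast cells seeded 24 h, then treated 48 h with compound at 0.1–20 μM (DMSO below 1%). Viability by MTT (2 h, formazan in DMSO, A570) against untreated cells as 100%; IC50 from four replicates per test, three independent repeats.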
smiles,measurement,setting,value
Cc1ccc(-n2c(-c3ccc(C(=O)N/N=C/c4ccccc4O)cc3)cc3c2cc(-c2ccc(C(=O)N/N=C/c4ccccc4O)cc2)n3-c2ccc(C)cc2)cc1 [Compound 6],Cell viability %,"HF-P4 cells; HF-P4, 100 nM, 0.1 µM",114.4851% and 90.24% and 95.4%
same,Cell viability %,"HF-P4 cells; HF-P4, 500 nM, 0.5 µM",95.79% and 101.8289%
same,Cell viability %,"HF-P4 cells; HF-P4, 750 nM, 0.75 µM",92.17% and 90.68%
same,Cell viability %,"HF-P4 cells; HF-P4, 1 uM, 1 µM",84.11% and 85.78%
same,Cell viability %,"HF-P4 cells; HF-P4, 2.5 uM, 2.5 µM",75.58% and 74.71%
same,Cell viability %,"HF-P4 cells; HF-P4, 5 uM, 5 µM",73.0472% and 65.6%
same,Cell viability %,"HF-P4 cells; HF-P4, 7.5 uM, 7.5 µM",61.49% and 69.35%
same,Cell viability %,"HF-P4 cells; HF-P4, 10 uM, 10 µM",61.41% and 64.7001%
same,Cell viability %,"HF-P4 cells; HF-P4, 15 uM, 15 µM",54.9% and 58.15%
same,Cell viability %,"HF-P4 cells; HF-P4, 20 uM, 20 µM",42.62% and 43.54%
same,IC50,"HF-P4 cells; Homo sapiens, MTT",16.4 µM
same,"viability at 48 h, 0.5 µM","[1]; HF-P4, 500 nM",103%
same,"viability at 48 h, 0.75 µM","[1]; HF-P4, 750 nM",97.8%
same,"viability at 48 h, 1 µM","[1]; HF-P4, 1 uM",84.4%
same,"viability at 48 h, 2.5 µM","[1]; HF-P4, 2.5 uM",94.5%
same,"viability at 48 h, 5 µM","[1]; HF-P4, 5 uM",84.3%
same,"viability at 48 h, 7.5 µM","[1]; HF-P4, 7.5 uM",62.3%
same,"viability at 48 h, 10 µM","[1]; HF-P4, 10 uM",66.1%
same,"viability at 48 h, 15 µM","[1]; HF-P4, 15 uM",62.5%
same,"viability at 48 h, 20 µM","[1]; HF-P4, 20 uM",48%
same,melting point,,332 to 333 °C
same,Cell viability %,"Caov-3 cells; Caov-3, 100 nM, 48 h, repeats, 0.1 µM",90.2569% and 126.2705% and 118.7488%
same,Cell viability %,"Caov-3 cells; Caov-3, 500 nM, 48 h, repeats, 0.5 µM",89.11% and 125.1899% and 99.08%
same,Cell viability %,"Caov-3 cells; Caov-3, 750 nM, 48 h, repeats, 0.75 µM",65.96% and 78.5%
same,Cell viability %,"Caov-3 cells; Caov-3, 1 uM, 48 h, repeats, 1 µM",64.72% and 111.7508% and 115.9087%
same,Cell viability %,"Caov-3 cells; Caov-3, 2.5 uM, 48 h, repeats, 2.5 µM",67.86% and 93.922% and 75.11%
same,Cell viability %,"Caov-3 cells; Caov-3, 5 uM, 48 h, repeats, 5 µM",62.99% and 65.69% and 100.7653%
same,Cell viability %,"Caov-3 cells; Caov-3, 7.5 uM, 48 h, repeats, 7.5 µM",58% and 65.63% and 91.09%
same,Cell viability %,"Caov-3 cells; Caov-3, 10 uM, 48 h, repeats, 10 µM",52.62% and 73.89% and 61.74%
same,Cell viability %,"Caov-3 cells; Caov-3, 15 uM, 48 h, repeats, 15 µM",42.46% and 49.26%
same,Cell viability %,"Caov-3 cells; Caov-3, 20 uM, 48 h, repeats, 20 µM",17.34% and 16.88%
same,viability at 0.75 µM,"Caov-3 cells; Homo sapiens, Caov-3, 48 h, Caov-3, 750 nM, repeats, read-out: Cell viability %",67%
same,viability at 15 µM,"Caov-3 cells; Homo sapiens, Caov-3, 48 h, Caov-3, 15 uM, repeats, read-out: Cell viability %",36.3%
same,viability at 20 µM,"Caov-3 cells; Homo sapiens, Caov-3, 48 h, Caov-3, 20 uM, repeats, read-out: Cell viability %",17.4%
same,IC50,"Caov-3 cells; Homo sapiens, Caov-3, MTT, 48 h",15.4 µM
same,Cell viability %,"BT-20 cells; BT-20, 100 nM, 48 h, repeats, 0.1 µM",95.0647% and 99.24%
same,Cell viability %,"BT-20 cells; BT-20, 500 nM, 48 h, repeats, 0.5 µM",79.35% and 86.49%
same,Cell viability %,"BT-20 cells; BT-20, 750 nM, 48 h, repeats, 0.75 µM",84.44% and 98.05%
same,Cell viability %,"BT-20 cells; BT-20, 1 uM, 48 h, repeats, 1 µM",79.3% and 90.76%
same,Cell viability %,"BT-20 cells; BT-20, 2.5 uM, 48 h, repeats, 2.5 µM",84.17% and 92.79%
same,Cell viability %,"BT-20 cells; BT-20, 5 uM, 48 h, repeats, 5 µM",70.3% and 79.42%
same,Cell viability %,"BT-20 cells; BT-20, 7.5 uM, 48 h, repeats, 7.5 µM",49.86% and 58.52%
same,Cell viability %,"BT-20 cells; BT-20, 10 uM, 48 h, repeats, 10 µM",29.6118% and 40.92%
same,Cell viability %,"BT-20 cells; BT-20, 15 uM, 48 h, repeats, 15 µM",26.72% and 42.11%
same,Cell viability %,"BT-20 cells; BT-20, 20 uM, 48 h, repeats, 20 µM",24.04% and 23.03%
same,viability at 0.1 µM,"BT-20 cells; Homo sapiens, BT-20, 48 h, BT-20, 100 nM, repeats, read-out: Cell viability %",104%
same,viability at 0.5 µM,"BT-20 cells; Homo sapiens, BT-20, 48 h, BT-20, 500 nM, repeats, read-out: Cell viability %",79.9%
same,viability at 0.75 µM,"BT-20 cells; Homo sapiens, BT-20, 48 h, BT-20, 750 nM, repeats, read-out: Cell viability %",85.1%
same,viability at 1 µM,"BT-20 cells; Homo sapiens, BT-20, 48 h, BT-20, 1 uM, repeats, read-out: Cell viability %",91.2%
same,viability at 2.5 µM,"BT-20 cells; Homo sapiens, BT-20, 48 h, BT-20, 2.5 uM, repeats, read-out: Cell viability %",89.2%
same,viability at 5 µM,"BT-20 cells; Homo sapiens, BT-20, 48 h, BT-20, 5 uM, repeats, read-out: Cell viability %",85.8%
same,viability at 7.5 µM,"BT-20 cells; Homo sapiens, BT-20, 48 h, BT-20, 7.5 uM, repeats, read-out: Cell viability %",50.5%
same,viability at 10 µM,"BT-20 cells; Homo sapiens, BT-20, 48 h, BT-20, 10 uM, repeats, read-out: Cell viability %",36.2%
same,viability at 15 µM,"BT-20 cells; Homo sapiens, BT-20, 48 h, BT-20, 15 uM, repeats, read-out: Cell viability %",37.8%
same,viability at 20 µM,"BT-20 cells; Homo sapiens, BT-20, 48 h, BT-20, 20 uM, repeats, read-out: Cell viability %",18.8%
same,IC50,"BT-20 cells; Homo sapiens, BT-20, MTT, 48 h",9.84 µM
